Measured values as given in patent US10112929B2, “Lactams as inhibitors of rock” (BRISTOL-MYERS SQUIBB COMPANY, priority 2015, dated 2018).

Target: ROCK2 (Homo sapiens (Human), UniProt O75116)
Experiment: biochemical
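Note: rho kinase enzyme reaction halted with EDTA, phospho- and non-phospho peptide separated for read-out, kinase activity inhibition derived across a dose-response series, DMSO under 2%.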

Sequence of ROCK2 (O75116 whole entry, species assumed): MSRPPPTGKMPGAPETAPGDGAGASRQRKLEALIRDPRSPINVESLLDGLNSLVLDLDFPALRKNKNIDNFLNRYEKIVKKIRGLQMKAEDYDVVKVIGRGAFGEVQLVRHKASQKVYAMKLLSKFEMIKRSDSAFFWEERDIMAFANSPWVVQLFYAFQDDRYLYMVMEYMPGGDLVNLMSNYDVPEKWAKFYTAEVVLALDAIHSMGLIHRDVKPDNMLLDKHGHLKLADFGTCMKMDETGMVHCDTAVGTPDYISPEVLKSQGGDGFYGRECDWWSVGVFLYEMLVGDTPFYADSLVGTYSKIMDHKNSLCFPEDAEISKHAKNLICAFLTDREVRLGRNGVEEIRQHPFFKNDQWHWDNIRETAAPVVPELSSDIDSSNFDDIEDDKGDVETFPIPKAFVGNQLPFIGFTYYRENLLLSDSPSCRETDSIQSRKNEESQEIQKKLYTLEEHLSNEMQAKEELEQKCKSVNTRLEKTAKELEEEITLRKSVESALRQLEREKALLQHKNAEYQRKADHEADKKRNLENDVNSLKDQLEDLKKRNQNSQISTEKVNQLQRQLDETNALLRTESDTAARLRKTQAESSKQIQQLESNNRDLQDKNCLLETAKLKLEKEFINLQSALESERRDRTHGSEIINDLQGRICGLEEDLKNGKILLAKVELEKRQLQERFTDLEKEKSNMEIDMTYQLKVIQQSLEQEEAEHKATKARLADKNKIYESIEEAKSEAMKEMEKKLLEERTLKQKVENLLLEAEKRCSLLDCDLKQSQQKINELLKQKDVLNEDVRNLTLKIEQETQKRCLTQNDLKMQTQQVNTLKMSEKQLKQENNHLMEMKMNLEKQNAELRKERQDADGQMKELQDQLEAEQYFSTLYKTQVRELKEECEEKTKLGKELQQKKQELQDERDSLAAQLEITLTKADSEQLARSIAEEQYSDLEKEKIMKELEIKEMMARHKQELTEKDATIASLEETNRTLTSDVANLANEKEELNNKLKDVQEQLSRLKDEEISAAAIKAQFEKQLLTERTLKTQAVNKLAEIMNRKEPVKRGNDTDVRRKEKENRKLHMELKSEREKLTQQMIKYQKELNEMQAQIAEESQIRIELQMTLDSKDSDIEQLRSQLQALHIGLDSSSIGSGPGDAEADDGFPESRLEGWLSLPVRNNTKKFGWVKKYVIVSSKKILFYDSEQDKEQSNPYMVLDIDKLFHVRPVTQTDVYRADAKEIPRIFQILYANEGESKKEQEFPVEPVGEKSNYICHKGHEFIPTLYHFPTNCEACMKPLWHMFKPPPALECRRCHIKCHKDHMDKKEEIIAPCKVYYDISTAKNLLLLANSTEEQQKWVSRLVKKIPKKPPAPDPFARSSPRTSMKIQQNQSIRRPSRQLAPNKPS

| SMILES | IC50 |
| --- | --- |
| COc1cc(NC2CCN(c3ccc(-c4cn[nH]c4)c(Cl)c3)C2=O)ccc1F (single isomer, unassigned) [Example 161, 1-(3-chloro-4-(1H-pyrazol-4-yl)phenyl)-3-((4-fluoro-3-methoxyphenyl)amino) pyrrolidin-2-one] | < 10 nM |
| COc1c(F)cccc1NC1CCN(c2ccc(-c3cn[nH]c3)cc2F)C1=O (single isomer, unassigned) [Example 342, 3-((3-fluoro-2-methoxyphenyl)amino)-1-(2-fluoro-4-(1H-pyrazol-4-yl)phenyl) pyrrolidin-2-one] | 100 to 2200 nM |
| O=C1C(Nc2cccc(OCC3CC3)c2)CCN1c1ccc(-c2cn[nH]c2)c(F)c1 (single isomer, unassigned) [Example 362, 3-((3-(cyclopropylmethoxy)phenyl)amino)-1-(3-fluoro-4-(1H-pyrazol-4-yl)phenyl)pyrrolidin-2-one] | 10 to 100 nM |
| O=C1C(Nc2ccccc2)CCN1c1ccc(-c2cn[nH]c2)cc1 (centres unmarked) [Example 58, 1-(4-(1H-pyrazol-4-yl)phenyl)-3-(phenylamino)pyrrolidin-2-one] | 10 to 100 nM |
| COc1cc(NC2CCN(c3ccc(-c4cn[nH]c4)c(OC)c3)C2=O)ccc1F (single isomer, unassigned) [Example 154, 3-((4-fluoro-3-methoxyphenyl)amino)-1-(3-methoxy-4-(1H-pyrazol-4-yl)phenyl) pyrrolidin-2-one] | 100 to 2200 nM |
| COc1nc(N2CCC(N3CC[C@@H](N(C)C)C3)C2=O)ccc1-c1cn[nH]c1 (mixture of isomers) [Example 293, (3R)-3-(dimethylamino)-1′-(6-methoxy-5-(1H-pyrazol-4-yl)pyridin-2-yl)-[l,3′-bipyrrolidin]-2′-one] | 100 to 2200 nM |
| COc1cccc(NC2CCN(c3ccc(-c4cn[nH]c4)c(Cl)c3)C2=O)c1 (single isomer, unassigned) [Example 164, 1-(3-chloro-4-(1H-pyrazo1-4-yl)phenyl)-3 ((3-methoxyphenyl)amino)pyrrolidin-2-one] | < 10 nM |
| COc1cccc(NC2CCN(c3ccc(-c4ccncc4F)c(C)n3)C2=O)c1 (single isomer, unassigned) [Example 121, 1-(3′-fluoro-2-methyl-[3,4′-bipyridin]-6-yl)-3-((3-methoxyphenyl)amino)pyrrolidin-2-one] | 100 to 2200 nM |
| NC(=O)c1cccc(NC2CCN(c3ccc(-c4cn[nH]c4)cc3)C2=O)c1 (centres unmarked) [Example 388, 3-((1-(4-(1H-pyrazol-4-yl)phenyl)-2-oxopyrrolidin-3-yl)amino)benzamide] | < 10 nM |
| COc1nc(N2CCC(Nc3cccc(OC(F)F)c3)C2=O)ccc1-c1cn[nH]c1 (single isomer, unassigned) [Example 220, 3-((3-(difluoromethoxy)phenyl)amino)-1-(6-methoxy-5-(1H-pyrazol-4-yl)pyridin-2-yl)pyrrolidin-2-one] | < 10 nM |
| COc1nc(N2CCC(N3CCC(CO)CC3)C2=O)ccc1-c1cn[nH]c1 (racemic) [Example 289, 3-(4-(hydroxymethyl)piperidin-1-yl)-1-(6-methoxy-5-(1H-pyrazol-4-yl)pyridin-2-yl)pyrrolidin-2-one] | 10 to 100 nM |
| O=C1C(Nc2cccc(OCC3CC3)c2)CCN1c1ccc(-c2cn[nH]c2)cn1 (single isomer, unassigned) [Example 319, 1-(5-(1H-pyrazol-4-yl)pyridin-2-yl)-3-((3-(cyclopropylmethoxy)phenyl)amino) pyrrolidin-2-one] | 10 to 100 nM |
| COc1nc(N2CCC(N3CC[C@H](O)C3)C2=O)ccc1-c1cn[nH]c1 (mixture of isomers) [Example 295, (3S)-3-hydroxy-1′-(6-methoxy-5-(1H-pyrazol-4-yl)pyridin-2-yl)-[l,3′-bipyrrolidin]-2′-one] | 100 to 2200 nM |
| COc1cccc(N(CCO)C2CCN(c3ccc(-c4cn[nH]c4)cc3)C2=O)c1 (centres unmarked) [Example 12, 1-(4-(1H-pyrazol-4-yl)phenyl)-3-((2-hydroxyethyl)(3-methoxyphenyl)amino)pyrrolidin-2-one] | 10 to 100 nM |
